According to patent US6706740B2, “Fungicidal heterocyclic aromatic amides and their compositions, methods of use and preparation” (Dow AgroSciences LLC, priority 1999, dated 2004):
Where two headings read alike, the source gives them in different places.

How the values were obtained:
[1] = tested on: Ustilago maydis (USTIMA); test: microbe, parasite or virus in culture; assay type: cell-based; details: Mycosarcoma maydis, read-out: USTIMA in vitro Growth Inhibition
[2] = tested on: Phytophthora infestans (PHYTIN); test: microbe, parasite or virus in culture; assay type: cell-based; details: Phytophthora infestans, read-out: PHYTIN in vitro Growth Inhibition
[3] = tested on: Erysiphe graminis—ERYSGT; test: Powdery Mildew of Wheat, in vivo whole plant, 24 Hour Protectant; details: Erysiphe, read-out: ERYSGT in vivo 1 Day Protectant
[4] = tested on: Puccinia recondita—PUCCRT; test: Brown Rust of Wheat, in vivo whole plant, 24 Hour Protectant; details: for pest or weed control at 100 ppm: Puccinia, read-out: PUCCRT in vivo 1 Day Protectant
[5] = tested on: Rhizoctonia solani (RHIZSO); test: microbe, parasite or virus in culture; assay type: cell-based; details: Rhizoctonia solani, read-out: RHIZSO in vitro Growth Inhibition
[6] = tested on: Mycosphaerella graminicola (Septoria tritici—SEPTTR); test: In vitro fungal growth inhibition, Mycosphaerella graminicola (SEPTTR); assay type: cell-based; details: Zymoseptoria tritici, read-out: SEPTTR in vitro Growth Inhibition
[7] = tested on: Leptosphaeria nodorum—LEPTNO; test: Glume Blotch of Wheat, in vivo whole plant, 24 Hour Protectant; details: for pest or weed control at 100 ppm: Leptosphaeria, read-out: LEPTNO in vivo 1 Day Protectant
[8] = tested on: Magnaporthe grisea (Pyricularia oryzae—PYRIOR); test: microbe, parasite or virus in culture; assay type: cell-based; details: Pyricularia oryzae, read-out: PYRIOR in vitro Growth Inhibition
[9] = tested on: Septoria tritici—SEPTTR; test: Leaf Blotch of Wheat, in vivo whole plant, 24 Hour Protectant; details: for pest or weed control at 100 ppm: Zymoseptoria tritici, 24 h, read-out: SEPTTR in vivo 1 Day Protectant
[10] = tested on: Phytophthora infestans—PHYTIN; test: whole plant or invertebrate; assay type: in vivo; details: Phytophthora, in Solanum lycopersicum, 24 h, read-out: PHYTIN in vivo 1 Day Protectant
[11] = tested on: Stagonospora nodorum (Leptosphaeria nodorum—LEPTNO); test: In vitro fungal growth inhibition, Stagonospora nodorum (LEPTNO); assay type: cell-based; details: Leptosphaeria, read-out: LEPTNO in vitro Growth Inhibition
[12] = 100 ppm spray, wheat, 24 hour protectant, % control of fungal infection vs untreated plants
[13] = 100 ppm spray, 24 hour protectant, wheat, control of fungal infection vs untreated plants
[14] = 100 ppm spray, wheat, 24 hour protectant, control of fungal infection vs untreated plants
[15] = wheat plants sprayed at 100 ppm, inoculated after 24 hours, control of fungal infection vs untreated plants

COCCC(=O)Oc1c(OC)ccnc1C(=O)N[C@H]1COC(=O)[C@H](Cc2ccccc2)[C@@H](OC(=O)C(C)C)[C@H](C)OC1=O [Compound 658]
inhibition at 25 ppm [1]: < 80% | inhibition at 25 ppm [2]: < 80% | pest or weed control at 100 ppm [3, 12]: < 25% | PUCCRT in vivo 1 Day Protectant [4, 12]: + + | inhibition at 25 ppm [5]: < 80% | inhibition at 25 ppm ([6]; 25 ppm in growth medium): < 80% | LEPTNO in vivo 1 Day Protectant [7, 12]: + + | inhibition at 25 ppm [8]: > 80% | SEPTTR in vivo 1 Day Protectant [9, 12]: + + | pest or weed control at 100 ppm [10]: < 25% | melting point: 126 to 128 °C | inhibition at 25 ppm ([11]; 25 ppm in growth medium): < 80%

CCCC(=O)Oc1c(OC)ccnc1C(=O)N[C@H]1COC(=O)[C@H](Cc2ccccc2)[C@@H](OC(=O)C(C)C)[C@H](C)OC1=O [Compound 599]
inhibition at 25 ppm [1]: < 80% | inhibition at 25 ppm [2]: < 80% | pest or weed control at 100 ppm [3, 12]: < 25% | PUCCRT in vivo 1 Day Protectant [4, 12]: + + | inhibition at 25 ppm [5]: < 80% | inhibition at 25 ppm ([6]; 25 ppm in growth medium): > 80% | LEPTNO in vivo 1 Day Protectant [7, 12]: + + | inhibition at 25 ppm [8]: < 80% | SEPTTR in vivo 1 Day Protectant [9, 12]: + + | pest or weed control at 100 ppm [10]: < 25% | melting point: 162 to 163 °C | inhibition at 25 ppm ([11]; 25 ppm in growth medium): > 80%

O=C(NCc1cccc2ccccc12)c1ncccc1O [Compound 228]
inhibition at 25 ppm [1]: < 80% | inhibition at 25 ppm [2]: < 80% | pest or weed control at 100 ppm [3, 13]: < 25% | pest or weed control at 100 ppm [4, 13]: < 25% | inhibition at 25 ppm [5]: < 80% | inhibition at 25 ppm ([6]; 25 ppm in growth medium): < 80% | pest or weed control at 100 ppm [7, 13]: < 25% | inhibition at 25 ppm [8]: < 80% | pest or weed control at 100 ppm [9, 13]: < 25% | pest or weed control at 100 ppm [10]: 25 to 74% | melting point: 106 to 109 °C | inhibition at 25 ppm ([11]; 25 ppm in growth medium): < 80%

COCCC(=O)Oc1c(OC)ccnc1C(=O)Nc1ccc(C(=O)Nc2cccc(C(F)(F)F)c2)cc1 [Compound 713]
inhibition at 25 ppm [1]: < 80% | inhibition at 25 ppm [2]: < 80% | pest or weed control at 100 ppm [3, 12]: < 25% | pest or weed control at 100 ppm [4, 12]: < 25% | inhibition at 25 ppm [5]: < 80% | inhibition at 25 ppm ([6]; 25 ppm in growth medium): < 80% | pest or weed control at 100 ppm [7, 12]: 25 to 74% | inhibition at 25 ppm [8]: < 80% | pest or weed control at 100 ppm [9, 12]: < 25% | pest or weed control at 100 ppm [10]: < 25% | melting point: 164 to 167 °C | inhibition at 25 ppm ([11]; 25 ppm in growth medium): < 80%

COc1ccnc(C(=O)NC2COC(=O)C[C@H](NC(=O)OCc3ccccc3)C(=O)OC2)c1O (stereo partly drawn) [Compound 376]
inhibition at 25 ppm [1]: < 80% | inhibition at 25 ppm [2]: < 80% | pest or weed control at 100 ppm [3, 14]: 25 to 74% | pest or weed control at 100 ppm [4, 14]: < 25% | inhibition at 25 ppm [5]: < 80% | inhibition at 25 ppm ([6]; 25 ppm in growth medium): < 80% | pest or weed control at 100 ppm [7, 14]: 25 to 74% | inhibition at 25 ppm [8]: < 80% | pest or weed control at 100 ppm [9, 14]: 25 to 74% | pest or weed control at 100 ppm [10]: < 25% | melting point: 190 to 192 °C | inhibition at 25 ppm ([11]; 25 ppm in growth medium): < 80%

CC1(C)CC(NC(=O)c2nsnc2O)CC(C)(C)C1 [Compound 552]
inhibition at 25 ppm [1]: < 80% | inhibition at 25 ppm [2]: > 80% | pest or weed control at 100 ppm [3, 15]: 25 to 74% | pest or weed control at 100 ppm [4, 15]: < 25% | inhibition at 25 ppm [5]: > 80% | inhibition at 25 ppm ([6]; 25 ppm in the growth medium): > 80% | pest or weed control at 100 ppm [7, 15]: < 25% | inhibition at 25 ppm [8]: > 80% | pest or weed control at 100 ppm [9, 15]: < 25% | pest or weed control at 100 ppm [10]: 25 to 74% | melting point: 96 to 102 °C | inhibition at 25 ppm ([11]; 25 ppm in the growth medium): > 80%

CC1(C)CC(NC(=O)c2conc2O)CC(C)(C)C1 [Compound 560]
inhibition at 25 ppm [1]: < 80% | inhibition at 25 ppm [2]: < 80% | pest or weed control at 100 ppm [3, 15]: < 25% | pest or weed control at 100 ppm [4, 15]: 25 to 74% | inhibition at 25 ppm [5]: < 80% | inhibition at 25 ppm ([6]; 25 ppm in the growth medium): < 80% | pest or weed control at 100 ppm [7, 15]: 25 to 74% | inhibition at 25 ppm [8]: < 80% | pest or weed control at 100 ppm [9, 15]: 25 to 74% | pest or weed control at 100 ppm [10]: < 25% | melting point: 186 to 188 °C | inhibition at 25 ppm ([11]; 25 ppm in the growth medium): < 80%

COc1ccnc(C(=O)N[C@H]2COC(=O)[C@H](Cc3ccccc3)[C@@H](OC(=O)c3ccccc3)[C@H](C)OC2=O)c1O [Compound 394]
inhibition at 25 ppm [1]: < 80% | inhibition at 25 ppm [2]: < 80% | pest or weed control at 100 ppm [3, 14]: < 25% | pest or weed control at 100 ppm [4, 14]: 25 to 74% | inhibition at 25 ppm [5]: < 80% | inhibition at 25 ppm ([6]; 25 ppm in growth medium): > 80% | LEPTNO in vivo 1 Day Protectant [7, 14]: + + | inhibition at 25 ppm [8]: < 80% | pest or weed control at 100 ppm [9, 14]: 25 to 74% | pest or weed control at 100 ppm [10]: < 25% | melting point: 181 to 185 °C | inhibition at 25 ppm ([11]; 25 ppm in growth medium): > 80%

COc1ccnc(C(=O)Nc2ccc(Sc3cccc(C(F)(F)F)c3)cc2)c1O [Compound 445]
inhibition at 25 ppm [1]: > 80% | inhibition at 25 ppm [2]: < 80% | pest or weed control at 100 ppm [3, 14]: 25 to 74% | pest or weed control at 100 ppm [4, 14]: 25 to 74% | inhibition at 25 ppm [5]: < 80% | inhibition at 25 ppm ([6]; 25 ppm in growth medium): > 80% | LEPTNO in vivo 1 Day Protectant [7, 14]: + + | inhibition at 25 ppm [8]: > 80% | pest or weed control at 100 ppm [9, 14]: 25 to 74% | pest or weed control at 100 ppm [10]: < 25% | melting point: 167 to 169 °C | inhibition at 25 ppm ([11]; 25 ppm in growth medium): < 80%

COc1ccnc(C(=O)N[C@H]2CO[C@](C)(C(C)CC3=C(C)CCCC3(C)C)OC2)c1O (stereo partly drawn) [Compound 319]
inhibition at 25 ppm [1]: < 80% | inhibition at 25 ppm [2]: < 80% | pest or weed control at 100 ppm [3, 13]: 25 to 74% | PUCCRT in vivo 1 Day Protectant [4, 13]: + + | inhibition at 25 ppm [5]: < 80% | inhibition at 25 ppm ([6]; 25 ppm in growth medium): < 80% | pest or weed control at 100 ppm [7, 13]: < 25% | inhibition at 25 ppm [8]: < 80% | pest or weed control at 100 ppm [9, 13]: 25 to 74% | pest or weed control at 100 ppm [10]: < 25% | melting point: 139 to 140 °C | inhibition at 25 ppm ([11]; 25 ppm in growth medium): < 80%
